From ChEMBL document CHEMBL4406842, “Synthesis and in vitro biological evaluation of novel derivatives of Flexicaulin A condensation with amino acid trifluoroacetate” (Eur J Med Chem, 2019)

Legend:
TE-1 = assay: Antiproliferative activity against human TE1 cells assessed as reduction in cell viability incubated for 72 hrs by SRB assay; type: functional, cell-based; details: TE-1, 72 h
MGC-803 = assay: Antiproliferative activity against human MGC803 cells assessed as reduction in cell viability incubated for 72 hrs by SRB assay; type: functional, cell-based; details: MGC-803, 72 h
MCF7 = assay: Antiproliferative activity against human MCF7 cells assessed as reduction in cell viability incubated for 72 hrs by SRB assay; type: functional, cell-based; details: MCF7, 72 h
[1] = Solubility of compound in water; type: physicochemical; details: buffer
A549 = assay: Antiproliferative activity against human A549 cells assessed as reduction in cell viability incubated for 72 hrs by SRB assay; type: functional, cell-based; details: A549, 72 h

Compound `C=C1C(=O)[C@]23[C@H](OC(=O)[C@H](C)NC)[C@H]1C[C@H](O)[C@H]2[C@]1(COC(C)=O)CCCC(C)(C)[C@H]1C[C@H]3OC.O=C(O)C(F)(F)F` has an IC50 (TE-1) of 3.32 µM, an IC50 (MGC-803) of 6.34 µM and an IC50 (MCF7) of 5.03 µM. The solubility [1] was “Soluble” and the IC50 (A549) was 2.79 µM.
`C=C1C(=O)[C@]23[C@H](OC(=O)[C@H]4CCCNC4)[C@H]1C[C@H](O)[C@H]2[C@]1(COC(C)=O)CCCC(C)(C)[C@H]1C[C@H]3OC.O=C(O)C(F)(F)F` showed an IC50 (TE-1) of 6.55 µM, an IC50 (MGC-803) of 6.22 µM and an IC50 (MCF7) of 11.5 µM. For the same compound, the solubility [1] was “Soluble” and the IC50 (A549) was 17.2 µM.
Work on `C=C1C(=O)[C@]23[C@H](OC(=O)[C@@H](NC)C(C)C)[C@H]1C[C@H](O)[C@H]2[C@]1(COC(C)=O)CCCC(C)(C)[C@H]1C[C@H]3OC.O=C(O)C(F)(F)F` yielded an IC50 (TE-1) of 1.16 µM, an IC50 (MGC-803) of 1.64 µM and an IC50 (MCF7) of 3.2 µM. The solubility [1] was “Soluble” and the IC50 (A549) was 1.89 µM.
Compound `C=C1C(=O)[C@]23[C@H](OC(=O)[C@@H](N)c4ccccc4)[C@H]1C[C@H](O)[C@H]2[C@]1(COC(C)=O)CCCC(C)(C)[C@H]1C[C@H]3OC.O=C(O)C(F)(F)F` has an IC50 (TE-1) of 0.92 µM, an IC50 (MGC-803) of 1.66 µM and an IC50 (MCF7) of 1.11 µM. The solubility [1] was “Soluble” and the IC50 (A549) was 1.68 µM.
Work on `C=C1C(=O)[C@]23[C@H](OC(=O)[C@@H]4CCCN4)[C@H]1C[C@H](O)[C@H]2[C@]1(COC(C)=O)CCCC(C)(C)[C@H]1C[C@H]3OC.O=C(O)C(F)(F)F` yielded an IC50 (TE-1) of 4.28 µM, an IC50 (MGC-803) of 5.02 µM and an IC50 (MCF7) of 5.1 µM. For the same compound, the solubility [1] was “Soluble” and the IC50 (A549) was 7.51 µM.
Work on `C=C1C(=O)[C@]23[C@H](OC(=O)[C@@H](NC(=O)OC(C)(C)C)C(C)C)[C@H]1C[C@H](O)[C@H]2[C@]1(COC(C)=O)CCCC(C)(C)[C@H]1C[C@H]3OC` yielded an IC50 (TE-1) of 1.68 µM, an IC50 (MGC-803) of 2.88 µM and an IC50 (MCF7) of 2.73 µM. For the same compound, the solubility [1] was “Insoluble” and the IC50 (A549) was 3.94 µM.
With `C=C1C(=O)[C@]23[C@H](OC(=O)[C@H]4CCCN(C(=O)OC(C)(C)C)C4)[C@H]1C[C@H](O)[C@H]2[C@]1(COC(C)=O)CCCC(C)(C)[C@H]1C[C@H]3OC` the IC50 (TE-1) was 1.65 µM, the IC50 (MGC-803) was 2.55 µM and the IC50 (MCF7) was 2.58 µM. The solubility [1] was “Insoluble” and the IC50 (A549) was 3.49 µM.
In the case of `C=C1C(=O)[C@]23[C@H](OC(=O)[C@H](C)N)[C@H]1C[C@H](O)[C@H]2[C@]1(COC(C)=O)CCCC(C)(C)[C@H]1C[C@H]3OC.O=C(O)C(F)(F)F`, the IC50 (TE-1) is reported as 3.07 µM, the IC50 (MGC-803) is reported as 10.5 µM and the IC50 (MCF7) is reported as 7.37 µM. The solubility [1] was “Soluble” and the IC50 (A549) was 3.96 µM.
In the case of `C=C1C(=O)[C@]23[C@H](OC(=O)[C@H](Cc4ccccc4)N(C)C(=O)OC(C)(C)C)[C@H]1C[C@H](O)[C@H]2[C@]1(COC(C)=O)CCCC(C)(C)[C@H]1C[C@H]3OC`, the IC50 (TE-1) is reported as 1.16 µM, the IC50 (MGC-803) is reported as 1.51 µM and the IC50 (MCF7) is reported as 2.46 µM. For the same compound, the solubility [1] was “Insoluble” and the IC50 (A549) was 3.15 µM.
`C=C1C(=O)[C@]23[C@H](OC(=O)[C@@H](N)CC)[C@H]1C[C@H](O)[C@H]2[C@]1(COC(C)=O)CCCC(C)(C)[C@H]1C[C@H]3OC.O=C(O)C(F)(F)F` gave an IC50 (TE-1) of 2.57 µM, an IC50 (MGC-803) of 3.88 µM and an IC50 (MCF7) of 3.75 µM. The solubility [1] was “Soluble” and the IC50 (A549) was 4.42 µM.
Compound `C=C1C(=O)[C@]23[C@H](OC(=O)[C@H](C)N(C)C(=O)OC(C)(C)C)[C@H]1C[C@H](O)[C@H]2[C@]1(COC(C)=O)CCCC(C)(C)[C@H]1C[C@H]3OC` has an IC50 (TE-1) of 1.04 µM, an IC50 (MGC-803) of 3.29 µM and an IC50 (MCF7) of 2.05 µM. For the same compound, the solubility [1] was “Insoluble” and the IC50 (A549) was 5.41 µM.
Work on `C=C1C(=O)[C@]23[C@H](OC(=O)[C@@H]4CCCN4C(=O)OC(C)(C)C)[C@H]1C[C@H](O)[C@H]2[C@]1(COC(C)=O)CCCC(C)(C)[C@H]1C[C@H]3OC` yielded an IC50 (TE-1) of 2.78 µM, an IC50 (MGC-803) of 2.81 µM and an IC50 (MCF7) of 3.7 µM. The solubility [1] was “Insoluble” and the IC50 (A549) was 5.9 µM.
With `C=C1C(=O)[C@]23[C@H](OC(=O)[C@H](CCc4ccccc4)NC(=O)OC(C)(C)C)[C@H]1C[C@H](O)[C@H]2[C@]1(COC(C)=O)CCCC(C)(C)[C@H]1C[C@H]3OC` the IC50 (TE-1) was 1.63 µM, the IC50 (MGC-803) was 1.73 µM and the IC50 (MCF7) was 2.18 µM. The solubility [1] was “Insoluble” and the IC50 (A549) was 3.72 µM.
For `C=C1C(=O)[C@]23[C@H](OC(=O)CCCCNC(=O)OC(C)(C)C)[C@H]1C[C@H](O)[C@H]2[C@]1(COC(C)=O)CCCC(C)(C)[C@H]1C[C@H]3OC`, the IC50 (TE-1) was 1.19 µM, the IC50 (MGC-803) was 3.06 µM and the IC50 (MCF7) was 1.56 µM. The solubility [1] was “Insoluble” and the IC50 (A549) was 5.64 µM.
`C=C1C(=O)[C@]23[C@H](O)[C@H]1C[C@H](O)[C@H]2[C@]1(COC(C)=O)CCCC(C)(C)[C@H]1C[C@H]3OC` showed an IC50 (TE-1) of 4.4 µM, an IC50 (MGC-803) of 1.11 µM and an IC50 (MCF7) of 1.65 µM. For the same compound, the IC50 (A549) was 1.77 µM.
For `C=C1C(=O)[C@]23[C@H](OC(=O)[C@H](CCCNC(=O)OC(C)(C)C)NC(=O)OC(C)(C)C)[C@H]1C[C@H](O)[C@H]2[C@]1(COC(C)=O)CCCC(C)(C)[C@H]1C[C@H]3OC`, the IC50 (TE-1) was 1.39 µM, the IC50 (MGC-803) was 3.33 µM and the IC50 (MCF7) was 2.15 µM. The solubility [1] was “Insoluble” and the IC50 (A549) was 2.99 µM.
`C=C1C(=O)[C@]23[C@H](OC(=O)[C@@H](N)CCSC)[C@H]1C[C@H](O)[C@H]2[C@]1(COC(C)=O)CCCC(C)(C)[C@H]1C[C@H]3OC.O=C(O)C(F)(F)F` showed an IC50 (TE-1) of 1.6 µM, an IC50 (MGC-803) of 3.66 µM and an IC50 (MCF7) of 3.1 µM. The solubility [1] was “Soluble” and the IC50 (A549) was 1.96 µM.
`C=C1C(=O)[C@]23[C@H](OC(=O)CN(C)C(=O)OC(C)(C)C)[C@H]1C[C@H](O)[C@H]2[C@]1(COC(C)=O)CCCC(C)(C)[C@H]1C[C@H]3OC` showed an IC50 (TE-1) of 1.45 µM, an IC50 (MGC-803) of 3.94 µM and an IC50 (MCF7) of 3.08 µM. For the same compound, the solubility [1] was “Insoluble” and the IC50 (A549) was 5.46 µM.
`C=C1C(=O)[C@]23[C@H](OC(=O)CNC(=O)OC(C)(C)C)[C@H]1C[C@H](O)[C@H]2[C@]1(COC(C)=O)CCCC(C)(C)[C@H]1C[C@H]3OC` showed an IC50 (TE-1) of 1.64 µM, an IC50 (MGC-803) of 5.71 µM and an IC50 (MCF7) of 1.7 µM. The solubility [1] was “Insoluble” and the IC50 (A549) was 4.24 µM.
`C=C1C(=O)[C@]23[C@H](OC(=O)[C@H](CCCC)NC(=O)OC(C)(C)C)[C@H]1C[C@H](O)[C@H]2[C@]1(COC(C)=O)CCCC(C)(C)[C@H]1C[C@H]3OC` gave an IC50 (TE-1) of 4.49 µM, an IC50 (MGC-803) of 11.2 µM and an IC50 (MCF7) of 4.42 µM. The solubility [1] was “Insoluble” and the IC50 (A549) was 11 µM.
`C=C1C(=O)[C@]23[C@H](OC(=O)CCCCCNC(=O)OC(C)(C)C)[C@H]1C[C@H](O)[C@H]2[C@]1(COC(C)=O)CCCC(C)(C)[C@H]1C[C@H]3OC` gave an IC50 (TE-1) of 1.72 µM, an IC50 (MGC-803) of 3.5 µM and an IC50 (MCF7) of 2.84 µM. The solubility [1] was “Insoluble” and the IC50 (A549) was 5.41 µM.
Compound `C=C1C(=O)[C@]23[C@H](O)[C@H]1CC[C@H]2[C@@]12CO[C@]3(O)[C@@H](O)[C@@H]1C(C)(C)CC[C@@H]2O` [ORIDONIN] has an IC50 (TE-1) of 12.7 µM, an IC50 (MGC-803) of 14.1 µM and an IC50 (MCF7) of 22 µM. It also gave an IC50 (A549) of 13.5 µM.
